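Following 48 hours of exposure in 96-well plates, responses at five concentrations were used to interpolate endpoints linearly. GI50 marks 50% less growth. TGI denotes the concentration required for complete inhibition of growth.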
How the values were obtained:
Experiment in all cases: NCI tumour cell line growth inhibition, 48 h
NCI-H23 lung = test system: NCI-H23 lung
TK-10 renal = test system: TK-10 renal
SK-MEL-2 melanoma = test system: SK-MEL-2 melanoma
HOP-92 NSCLC = test system: HOP-92 NSCLC
MDA-MB-231 breast = test system: MDA-MB-231 breast
T-47D breast = test system: T-47D breast
HS 578T breast = test system: HS 578T breast
SR leukemia = test system: SR leukemia
786-0 renal = test system: 786-0 renal
SN12C renal = test system: SN12C renal
SNB-19 CNS = test system: SNB-19 CNS
PC-3 prostate = test system: PC-3 prostate
NCI-H226 lung = test system: NCI-H226 lung
UACC-62 melanoma = test system: UACC-62 melanoma
SF-268 CNS = test system: SF-268 CNS
OVCAR-5 ovarian = test system: OVCAR-5 ovarian
HCT-116 colon = test system: HCT-116 colon
A498 renal = test system: A498 renal
KM12 colon = test system: KM12 colon
HCC-2998 colon = test system: HCC-2998 colon
M14 melanoma = test system: M14 melanoma
SF-539 CNS = test system: SF-539 CNS
UACC-257 melanoma = test system: UACC-257 melanoma
RPMI-8226 leukemia = test system: RPMI-8226 leukemia
BT-549 breast = test system: BT-549 breast
MALME-3M melanoma = test system: MALME-3M melanoma
MCF7 breast = test system: MCF7 breast
HL-60(TB) leukemia = test system: HL-60(TB) leukemia
CAKI-1 renal = test system: CAKI-1 renal
OVCAR-8 ovarian = test system: OVCAR-8 ovarian
UO-31 renal = test system: UO-31 renal
CCRF-CEM leukemia = test system: CCRF-CEM leukemia
HT29 colon = test system: HT29 colon
OVCAR-4 ovarian = test system: OVCAR-4 ovarian
SK-OV-3 ovarian = test system: SK-OV-3 ovarian
A549 NSCLC = test system: A549 NSCLC
MOLT-4 leukemia = test system: MOLT-4 leukemia
NCI-H460 lung = test system: NCI-H460 lung
NCI/ADR-RES ovarian = test system: NCI/ADR-RES ovarian
DU-145 prostate = test system: DU-145 prostate
SNB-75 CNS = test system: SNB-75 CNS
LOX IMVI melanoma = test system: LOX IMVI melanoma
OVCAR-3 ovarian = test system: OVCAR-3 ovarian
U251 CNS = test system: U251 CNS
SK-MEL-28 melanoma = test system: SK-MEL-28 melanoma
EKVX NSCLC = test system: EKVX NSCLC
MDA-MB-435 = test system: MDA-MB-435
SK-MEL-5 melanoma = test system: SK-MEL-5 melanoma
RXF 393 renal = test system: RXF 393 renal
SW-620 colon = test system: SW-620 colon
NCI-H522 lung = test system: NCI-H522 lung
HOP-62 NSCLC = test system: HOP-62 NSCLC
HCT-15 colon = test system: HCT-15 colon
COLO 205 colon = test system: COLO 205 colon
IGROV1 ovarian = test system: IGROV1 ovarian
K-562 leukemia = test system: K-562 leukemia

O=S(=O)(NCCNc1cc(-c2cn(-c3ccccc3)nc2-c2cccc(O)c2)ccn1)c1ccc(C(F)(F)F)cc1
GI50 (NCI-H23 lung): 2.97 µM | TGI (NCI-H23 lung): 15.4 µM | GI50 (TK-10 renal): 2.81 µM | TGI (TK-10 renal): 18.7 µM | GI50 (SK-MEL-2 melanoma): 2.36 µM | TGI (SK-MEL-2 melanoma): 7.22 µM | GI50 (HOP-92 NSCLC): 1.97 µM | TGI (HOP-92 NSCLC): 6.39 µM | GI50 (MDA-MB-231 breast): 2.12 µM | TGI (MDA-MB-231 breast): 4.72 µM | GI50 (T-47D breast): 1.84 µM | TGI (T-47D breast): 6.73 µM | GI50 (HS 578T breast): 2.31 µM | TGI (HS 578T breast): 19.4 µM | GI50 (SR leukemia): 1.31 µM | TGI (SR leukemia): 4.29 µM | GI50 (786-0 renal): 1.72 µM | TGI (786-0 renal): 4.45 µM | GI50 (SN12C renal): 2.31 µM | TGI (SN12C renal): 5.49 µM | GI50 (SNB-19 CNS): 3.79 µM | TGI (SNB-19 CNS): 17.4 µM | GI50 (PC-3 prostate): 2.47 µM | TGI (PC-3 prostate): 10.9 µM | GI50 (NCI-H226 lung): 5.36 µM | TGI (NCI-H226 lung): 30.9 µM | GI50 (UACC-62 melanoma): 1.78 µM | TGI (UACC-62 melanoma): 3.98 µM | GI50 (SF-268 CNS): 3.42 µM | TGI (SF-268 CNS): 17.3 µM | GI50 (OVCAR-5 ovarian): 2.53 µM | TGI (OVCAR-5 ovarian): 13.7 µM | GI50 (HCT-116 colon): 2.29 µM | TGI (HCT-116 colon): 7.94 µM | GI50 (A498 renal): 3.05 µM | TGI (A498 renal): 14.5 µM | GI50 (KM12 colon): 2.62 µM | TGI (KM12 colon): 7.98 µM | GI50 (HCC-2998 colon): 2.04 µM | TGI (HCC-2998 colon): 4.45 µM | GI50 (M14 melanoma): 2.12 µM | TGI (M14 melanoma): 7.17 µM | GI50 (SF-539 CNS): 1.59 µM | TGI (SF-539 CNS): 3.48 µM | GI50 (UACC-257 melanoma): 4.79 µM | TGI (UACC-257 melanoma): 18.4 µM | GI50 (RPMI-8226 leukemia): 2.77 µM | TGI (RPMI-8226 leukemia): 7.85 µM | GI50 (BT-549 breast): 2.02 µM | TGI (BT-549 breast): 7.07 µM | GI50 (MALME-3M melanoma): 1.68 µM | TGI (MALME-3M melanoma): 4.57 µM | GI50 (MCF7 breast): 2.29 µM | TGI (MCF7 breast): 9.78 µM | GI50 (HL-60(TB) leukemia): 2.17 µM | TGI (HL-60(TB) leukemia): 4.77 µM | GI50 (CAKI-1 renal): 1.94 µM | TGI (CAKI-1 renal): 5.35 µM | GI50 (OVCAR-8 ovarian): 4.91 µM | TGI (OVCAR-8 ovarian): 26.1 µM | GI50 (UO-31 renal): 1.81 µM | TGI (UO-31 renal): 4.28 µM | GI50 (CCRF-CEM leukemia): 3.27 µM | TGI (CCRF-CEM leukemia): 8.05 µM | GI50 (HT29 colon): 2.04 µM | TGI (HT29 colon): 5.44 µM | GI50 (OVCAR-4 ovarian): 2.85 µM | TGI (OVCAR-4 ovarian): 16.9 µM | GI50 (SK-OV-3 ovarian): 3.79 µM | TGI (SK-OV-3 ovarian): 16.2 µM | GI50 (A549 NSCLC): 3.89 µM | TGI (A549 NSCLC): 18.2 µM | GI50 (MOLT-4 leukemia): 2.05 µM | TGI (MOLT-4 leukemia): 5.71 µM | GI50 (NCI-H460 lung): 3.23 µM | TGI (NCI-H460 lung): 10.1 µM | GI50 (NCI/ADR-RES ovarian): 3.21 µM | TGI (NCI/ADR-RES ovarian): 16.6 µM | GI50 (DU-145 prostate): 4.44 µM | TGI (DU-145 prostate): 15.9 µM | GI50 (SNB-75 CNS): 2.63 µM | TGI (SNB-75 CNS): 14 µM | GI50 (LOX IMVI melanoma): 1.7 µM | TGI (LOX IMVI melanoma): 3.29 µM | GI50 (OVCAR-3 ovarian): 2.2 µM | TGI (OVCAR-3 ovarian): 5.58 µM | GI50 (U251 CNS): 2.65 µM | TGI (U251 CNS): 7.28 µM | GI50 (SK-MEL-28 melanoma): 2.71 µM | TGI (SK-MEL-28 melanoma): 9.83 µM | GI50 (EKVX NSCLC): 2.25 µM | TGI (EKVX NSCLC): 11.8 µM | GI50 (MDA-MB-435): 2.4 µM | TGI (MDA-MB-435): 7.63 µM | GI50 (SK-MEL-5 melanoma): 1.78 µM | TGI (SK-MEL-5 melanoma): 3.36 µM | GI50 (RXF 393 renal): 2.52 µM | TGI (RXF 393 renal): 10 µM | GI50 (SW-620 colon): 3.55 µM | TGI (SW-620 colon): 12.9 µM | GI50 (NCI-H522 lung): 1.67 µM | TGI (NCI-H522 lung): 3.8 µM | GI50 (HOP-62 NSCLC): 2.56 µM | TGI (HOP-62 NSCLC): 9.14 µM | GI50 (HCT-15 colon): 2.34 µM | TGI (HCT-15 colon): 11 µM | GI50 (COLO 205 colon): 1.81 µM | TGI (COLO 205 colon): 4 µM | GI50 (IGROV1 ovarian): 2.36 µM | TGI (IGROV1 ovarian): 5.89 µM | GI50 (K-562 leukemia): 2.48 µM | TGI (K-562 leukemia): 6.58 µM
